Assay in all cases: NCI anticancer screen, dose series, 48 h
Experiment [1] has as its system HL-60(TB) leukemia.
Experiment [2] relates to OVCAR-3 ovarian.
Experiment [3] relates to A498 renal.
Experiment [4] relates to IGROV1 ovarian.
For experiment [5], the system named is MDA-MB-231 breast.
The subject of experiment [6] is RXF 393 renal.
Experiment [7] concerns SK-MEL-2 melanoma.
Experiment [8] concerns LOX IMVI melanoma.
Experiment [9] relates to U251 CNS.
Experiment [10] concerns SNB-75 CNS.
Experiment [11] deals with OVCAR-8 ovarian.
Experiment [12] deals with SF-539 CNS.

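Tested at 5 concentrations; 48 h exposure; 96-well plates; endpoints linearly interpolated, else capped at highest concentration. TGI is the concentration that stops growth completely.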

In the case of `CCOP(=O)(Cc1nc(C#N)c(N)o1)OCC`, the TGI in experiment [1], in [2], in [3], in experiment [4], in experiment [5] and in experiment [6] was over 100 µM in each case. In addition, the TGI in [7], in experiment [8] and in experiment [9] was over 100 µM each time.

As to `CSc1c(C)n([O-])c2cc(Cl)c(Cl)cc2[n+]1=O`, the TGI in [10] was over 69.4 µM; in [2], 33.1 µM; in experiment [3] it was 61.6 µM; in experiment [11] it was 32.3 µM; in experiment [4], 30.8 µM; in experiment [5] it was 37.9 µM. In addition, the TGI was 45.6 µM in [6]; 46 µM in [7]; 41.3 µM in [8]; over 100 µM in experiment [12]; 46.3 µM in [9].

On to `CC(=O)c1c(O)cc(O)c(-c2c(C)cc(O)c3c2C(=O)c2cccc(O)c2C3=O)c1O`, for which the TGI in experiment [10] was determined as 38.1 µM; in [1], 79.7 µM; in [2], 56.2 µM; in experiment [3], 29.1 µM; in experiment [11], 49.5 µM; in experiment [4] it was 29.8 µM. Also, the TGI in [5] stood at 41.1 µM; in experiment [7] it was 34.2 µM; in experiment [8], 27.4 µM; in experiment [12], 30.3 µM; in experiment [9], 27.2 µM.

In the case of `CCOC(=O)Cc1cc(=O)[nH]c(-n2[nH]c(C)c(CCO)c2=O)n1`, the TGI in experiment [1], in experiment [2], in [3], in experiment [11], in experiment [4] and in experiment [5] was over 100 µM throughout. Also, the TGI in [6], in experiment [7], in experiment [8], in [12] and in [9] was over 100 µM in each case.

Turning to `COc1ccc(C2=Nc3c(nc(SC)[nH]c3=O)NC(c3ccccc3)C2)cc1` (stereo not given), the TGI in experiment [10] was 48.8 µM; in experiment [1], 42.5 µM; in [2] it was over 100 µM; in experiment [3], over 100 µM; in experiment [11], 40.7 µM; in [4], 55.6 µM. Moreover, the TGI in experiment [5] was 30 µM; in experiment [6], 39 µM; in [7], 94.4 µM; in [8] it was over 100 µM; in [12] it was 37.3 µM; in experiment [9], 36.4 µM.

Take `Cc1ccc(C)c2c1n1c(=O)n(C)c(=O)n21`: the TGI in experiment [10], in experiment [1], in experiment [2], in experiment [3], in experiment [11] and in experiment [4] was over 100 µM throughout. For the same compound, the TGI in [5], in experiment [6], in experiment [7], in experiment [8], in experiment [12] and in [9] was over 100 µM throughout.

As for `COc1ccc(/C=C(/c2ccc(OC)cc2)c2c(Cl)cc(Cl)c(/C(=C\c3ccc(OC)cc3)c3ccc(OC)cc3)c2N=Nc2ccccc2)cc1`, the TGI in experiment [10], in experiment [1], in [2], in experiment [3], in experiment [11] and in experiment [4] was over 100 µM throughout. The TGI in experiment [5], in experiment [6], in experiment [7], in experiment [8], in experiment [12] and in experiment [9] was over 100 µM in each case.

With `Cc1ccsc1/C=N/Nc1cc(C)c2ccccc2n1`, the TGI was 31.4 µM in experiment [10]; 34.4 µM in experiment [1]; 26.6 µM in experiment [2]; 23 µM in experiment [3]; 32.7 µM in [11]; 6.33 µM in [4]. In addition, the TGI in [5] amounted to 12.5 µM; in experiment [6] it was 47.8 µM; in [7], 51.2 µM; in experiment [8] it was 25.9 µM; in [9] it was 31.4 µM.

Regarding `CCCCOc1ccc(S(=O)(=O)/N=C(\NO)Nc2ccc(Cl)cc2)cc1`, the TGI in experiment [2] is 28.4 µM; in experiment [3], 26.7 µM; in experiment [11], 36.2 µM; in experiment [5] it was 33.9 µM; in [6], 30.2 µM; in experiment [7], 31.6 µM. The values for the TGI in experiment [8], in [12] and in experiment [9] were 31 µM, 37 µM and 30.8 µM, respectively.

For `O=C(Cn1c(=O)oc2ccc(C(=O)c3cccc(Cl)c3)cc21)c1ccccc1`, the TGI in [10] was over 100 µM; in experiment [1], over 100 µM; in experiment [2], over 100 µM; in experiment [3], 95.8 µM; in [11], over 100 µM; in [4] it was over 100 µM. In addition, the TGI in experiment [5], in experiment [7], in [8], in [12] and in experiment [9] was over 100 µM in each case.

As for `CC1=NN(c2nc(N)nc(-c3cc4ccccc4oc3=N)n2)C(C)(C)C1`, the TGI in experiment [1] stood at 46.2 µM; in experiment [2] it was 31.6 µM; in experiment [3], 66.9 µM; in [11], 53 µM; in experiment [4] it was 32.1 µM; in experiment [5], 43.4 µM. The TGI in experiment [6] was 43.5 µM; in [7], 41.8 µM; in experiment [12], 34.1 µM; in experiment [9], 76.8 µM.

Regarding `COc1cccc(N(CN2C(=O)CCC2OC)C(C)=O)c1` (stereo not given), the TGI in experiment [10] is over 100 µM; in experiment [1], 49.2 µM; in experiment [2], over 100 µM; in experiment [3], over 100 µM; in [11] it was over 100 µM; in experiment [5], over 100 µM. For the same compound, the TGI in [6], in experiment [7], in experiment [8], in experiment [12] and in [9] was over 100 µM throughout.

For the origin of these results see PubChem BioAssay (NCI).
